Experimental data published in ChEMBL document CHEMBL1201862, “PubChem BioAssay data set” (2004).
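Assay format: 96-well plates, 48-hour exposure. At the GI50, growth is halved.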 Active and inactive are the calls of the source. Cut-off read from the data, not from the text of the source: active = GI50 up to about 1.1 µM and inactive = higher.

What was measured:
Experiment in all cases: growth of human tumour cells (NCI), 48 h
OVCAR-5 = tested on: OVCAR-5
EKVX = tested on: EKVX
HT-29 = tested on: HT-29
SNB-19 = tested on: SNB-19
M14 = tested on: M14
SK-OV-3 = tested on: SK-OV-3
UACC-257 = tested on: UACC-257
NCI-H460 = tested on: NCI-H460
SF-539 = tested on: SF-539
SW-620 = tested on: SW-620
BT-549 = tested on: BT-549
MDA-MB-435 = tested on: MDA-MB-435
KM12 = tested on: KM12
HL-60 = tested on: HL-60
HCT-116 = tested on: HCT-116
RXF 393 = tested on: RXF 393
HCC 2998 = tested on: HCC 2998
T47D = tested on: T47D
OVCAR-8 = tested on: OVCAR-8
RPMI-8226 = tested on: RPMI-8226

SMILES | GI50 (OVCAR-5) | GI50 (EKVX) | GI50 (HT-29) | GI50 (SNB-19) | GI50 (M14) | GI50 (SK-OV-3) | GI50 (UACC-257) | GI50 (NCI-H460) | GI50 (SF-539) | GI50 (SW-620) | GI50 (BT-549) | GI50 (MDA-MB-435) | GI50 (KM12) | GI50 (HL-60) | GI50 (HCT-116) | GI50 (RXF 393) | GI50 (HCC 2998) | GI50 (T47D) | GI50 (OVCAR-8) | GI50 (RPMI-8226)
Cc1[nH]c2ncn3ncnc3c2c1Cc1ccccc1 | > 100 µM (inactive) | > 100 µM (inactive) | > 100 µM (inactive) | > 100 µM (inactive) | > 100 µM (inactive) | > 100 µM (inactive) | > 100 µM (inactive) | > 100 µM (inactive) | > 100 µM (inactive) | > 100 µM (inactive) | > 100 µM (inactive) | > 100 µM (inactive) | > 100 µM (inactive) | > 100 µM (inactive) | > 100 µM (inactive) | 50 µM (inactive) | > 100 µM (inactive) | > 100 µM (inactive) | > 100 µM (inactive) | 
CCCCOC(=O)C(O)Cc1ccoc1 (stereo unspecified) | > 100 µM (inactive) | > 100 µM (inactive) | > 100 µM (inactive) | > 100 µM (inactive) | > 100 µM (inactive) | > 100 µM (inactive) |  | > 100 µM (inactive) | > 100 µM (inactive) | > 100 µM (inactive) | > 100 µM (inactive) | > 100 µM (inactive) | > 100 µM (inactive) | > 100 µM (inactive) | > 100 µM (inactive) | > 100 µM (inactive) | > 100 µM (inactive) | > 100 µM (inactive) | > 100 µM (inactive) | > 100 µM (inactive)
O=C1/C(=C/c2ccc([N+](=O)[O-])cc2)Oc2cc(O)ccc21 |  | 33.7 µM (inactive) |  | 29.1 µM (inactive) | 43.1 µM (inactive) | 25.1 µM (inactive) | 37.7 µM (inactive) | 31.5 µM (inactive) | 23.4 µM (inactive) | 41 µM (inactive) | 25.9 µM (inactive) | 30.5 µM (inactive) | 36.5 µM (inactive) | 17.5 µM (inactive) | 26.2 µM (inactive) | 45 µM (inactive) | 34.6 µM (inactive) | 28.6 µM (inactive) | 29.6 µM (inactive) | 22.5 µM (inactive)
CC(=O)OCC1OC(n2c(C)c(/N=N/c3ccc(Cl)cc3)c(C)c(C#N)c2=S)C(OC(C)=O)C(OC(C)=O)C1OC(C)=O (stereo unspecified) | 31.8 µM (inactive) |  | > 100 µM (inactive) | 28.8 µM (inactive) | > 100 µM (inactive) | 36.3 µM (inactive) | 62.8 µM (inactive) | > 100 µM (inactive) | 44.1 µM (inactive) | > 100 µM (inactive) | 15.3 µM (inactive) | > 100 µM (inactive) | > 100 µM (inactive) | > 100 µM (inactive) | 48.1 µM (inactive) | 18.2 µM (inactive) | > 100 µM (inactive) | > 100 µM (inactive) |  | > 100 µM (inactive)
CC(C)=CCNc1ncnc2c1ncn2CCC(=O)O | > 100 µM (inactive) |  | > 100 µM (inactive) | > 100 µM (inactive) | > 100 µM (inactive) | > 100 µM (inactive) |  | > 100 µM (inactive) | > 100 µM (inactive) | > 100 µM (inactive) | > 100 µM (inactive) | > 100 µM (inactive) | > 100 µM (inactive) | > 100 µM (inactive) | > 100 µM (inactive) | > 100 µM (inactive) | > 100 µM (inactive) | > 100 µM (inactive) | > 100 µM (inactive) | > 100 µM (inactive)
CCOC(=O)c1cc(C)nc2c1c(=O)n(-c1ccccc1)c(=O)n2CCCCN1CCN(c2ccccc2)CC1 | > 100 µM (inactive) | > 100 µM (inactive) | 36.6 µM (inactive) |  | 38.9 µM (inactive) | > 100 µM (inactive) | 27.8 µM (inactive) |  |  | > 100 µM (inactive) | > 100 µM (inactive) | > 100 µM (inactive) | 61.8 µM (inactive) | 27 µM (inactive) | > 100 µM (inactive) | > 100 µM (inactive) | 41.1 µM (inactive) | 24.3 µM (inactive) | > 100 µM (inactive) | 15.7 µM (inactive)
O=C(O)c1ccc(Nc2nc3ccccc3nc2-c2cccs2)cc1 | > 100 µM (inactive) | 92.5 µM (inactive) | 66.4 µM (inactive) |  |  | > 100 µM (inactive) | > 100 µM (inactive) | 71 µM (inactive) | > 100 µM (inactive) | > 100 µM (inactive) | 32.1 µM (inactive) | > 100 µM (inactive) | 64.1 µM (inactive) | > 100 µM (inactive) | 94 µM (inactive) | 39.4 µM (inactive) | > 100 µM (inactive) | 47 µM (inactive) | 54.2 µM (inactive) | 68.1 µM (inactive)
CN(CCc1ccccn1)c1ccc2c(c1)Cc1ccccc1-2 | 28.4 µM (inactive) | 16.6 µM (inactive) | 23.1 µM (inactive) | 19.3 µM (inactive) | 26.7 µM (inactive) | 24.2 µM (inactive) | 26.2 µM (inactive) | 5.75 µM (inactive) |  | 48.4 µM (inactive) | 14.7 µM (inactive) | 31 µM (inactive) | 14.4 µM (inactive) | 20.4 µM (inactive) | 11.1 µM (inactive) | 25.1 µM (inactive) | 29.5 µM (inactive) | 25.2 µM (inactive) | 18.4 µM (inactive) | 14.1 µM (inactive)
COc1ccc(CNc2nc(NCc3ccc(OC)c(OC)c3)nc(NC3CCCCC3)n2)cc1 | 4.88 µM (inactive) | 10.4 µM (inactive) | 2.88 µM (inactive) | > 100 µM (inactive) | 4.61 µM (inactive) | > 100 µM (inactive) | > 100 µM (inactive) | 2.8 µM (inactive) | 2.29 µM (inactive) | 2.89 µM (inactive) | 4.57 µM (inactive) | 0.531 µM (active) | 1.21 µM (inactive) | 2.77 µM (inactive) | 2.69 µM (inactive) | 2.23 µM (inactive) |  | 4.48 µM (inactive) | 7.41 µM (inactive) | 3.6 µM (inactive)
Cn1cnc([N+](=O)[O-])c1SCC(=O)O | > 100 µM (inactive) | > 100 µM (inactive) | > 100 µM (inactive) | > 100 µM (inactive) | > 100 µM (inactive) | > 100 µM (inactive) | > 100 µM (inactive) | > 100 µM (inactive) |  | > 100 µM (inactive) | > 100 µM (inactive) | > 100 µM (inactive) | > 100 µM (inactive) | > 100 µM (inactive) | > 100 µM (inactive) | > 100 µM (inactive) | > 100 µM (inactive) | > 100 µM (inactive) | > 100 µM (inactive) | > 100 µM (inactive)
CSc1ncnc2c1cnn2Cc1cn(CCCCO)nn1 | > 100 µM (inactive) | > 100 µM (inactive) | > 100 µM (inactive) | > 100 µM (inactive) | > 100 µM (inactive) | > 100 µM (inactive) | > 100 µM (inactive) | > 100 µM (inactive) | > 100 µM (inactive) | > 100 µM (inactive) | > 100 µM (inactive) | > 100 µM (inactive) | > 100 µM (inactive) |  | > 100 µM (inactive) | > 100 µM (inactive) | > 100 µM (inactive) | > 100 µM (inactive) | > 100 µM (inactive) | > 100 µM (inactive)
COc1cc(C2C3=C(COC3=O)Oc3cc4c(cc32)OCO4)cc(OC)c1O (stereo unspecified) | 0.0236 µM (active) | 0.0207 µM (active) | < 0.0147 µM (active) | < 0.0123 µM (active) | < 0.0112 µM (active) | < 0.012 µM (active) |  | < 0.0139 µM (active) | < 0.01 µM (active) | 0.0124 µM (active) | 39.8 µM (inactive) | < 0.01 µM (active) | < 0.01 µM (active) | < 0.01 µM (active) | 0.0103 µM (active) | < 0.01 µM (active) | < 0.0209 µM (active) | 0.0157 µM (active) | < 0.0152 µM (active) | < 0.0232 µM (active)
CN(CCc1ccccn1)c1ccc2c(c1)C(=O)c1ccccc1-2 | > 100 µM (inactive) | 18.5 µM (inactive) | 66.4 µM (inactive) | 88.9 µM (inactive) | > 100 µM (inactive) | > 100 µM (inactive) | 54.6 µM (inactive) | 9.68 µM (inactive) |  | > 100 µM (inactive) | 78.9 µM (inactive) | > 100 µM (inactive) | > 100 µM (inactive) |  | > 100 µM (inactive) | > 100 µM (inactive) | > 100 µM (inactive) | 73.8 µM (inactive) | 99.1 µM (inactive) | 38.3 µM (inactive)
COc1ccc(C(OCC2OC(n3cc(C)c(=O)[nH]c3=O)CC2n2cc(Cn3cc(Br)c(=O)[nH]c3=O)nn2)(c2ccccc2)c2ccccc2)cc1 (stereo unspecified) | > 100 µM (inactive) | > 100 µM (inactive) | > 100 µM (inactive) | > 100 µM (inactive) | > 100 µM (inactive) | > 100 µM (inactive) | > 100 µM (inactive) |  | > 100 µM (inactive) | > 100 µM (inactive) | > 100 µM (inactive) | 6.55 µM (inactive) | 50.9 µM (inactive) | 2.07 µM (inactive) | > 100 µM (inactive) | > 100 µM (inactive) | > 100 µM (inactive) | > 100 µM (inactive) | > 100 µM (inactive) | 5.05 µM (inactive)
CC1(C)O[C@@H](CP(c2ccc3ccccc3c2)c2ccc3ccccc3c2)[C@H](CP(c2ccc3ccccc3c2)c2ccc3ccccc3c2)O1 | > 100 µM (inactive) | > 100 µM (inactive) | 85.5 µM (inactive) | > 100 µM (inactive) | > 100 µM (inactive) | > 100 µM (inactive) | > 100 µM (inactive) | > 100 µM (inactive) |  | > 100 µM (inactive) | > 100 µM (inactive) | > 100 µM (inactive) | 70.1 µM (inactive) |  | > 100 µM (inactive) | > 100 µM (inactive) | > 100 µM (inactive) | 78.2 µM (inactive) | > 100 µM (inactive) | 
